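Exposure lasted 48 hours, with cells grown in 96-well plates and compounds tested at five concentrations. GI50 marks 50% less growth. At the TGI there is no net growth.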
Tests used:
Assay in all cases: NCI anticancer screen, dose series, 48 h
SK-MEL-5 melanoma = test system: SK-MEL-5 melanoma
786-0 renal = test system: 786-0 renal
MALME-3M melanoma = test system: MALME-3M melanoma
SNB-75 CNS = test system: SNB-75 CNS
SNB-19 CNS = test system: SNB-19 CNS
NCI-H460 lung = test system: NCI-H460 lung
U251 CNS = test system: U251 CNS
HCC-2998 colon = test system: HCC-2998 colon
NCI-H522 lung = test system: NCI-H522 lung
SW-620 colon = test system: SW-620 colon
A498 renal = test system: A498 renal
MCF7 breast = test system: MCF7 breast
RPMI-8226 leukemia = test system: RPMI-8226 leukemia
ACHN renal = test system: ACHN renal
LOX IMVI melanoma = test system: LOX IMVI melanoma
HOP-92 NSCLC = test system: HOP-92 NSCLC
MDA-MB-231 breast = test system: MDA-MB-231 breast
EKVX NSCLC = test system: EKVX NSCLC
OVCAR-3 ovarian = test system: OVCAR-3 ovarian
RXF 393 renal = test system: RXF 393 renal
UO-31 renal = test system: UO-31 renal
IGROV1 ovarian = test system: IGROV1 ovarian
SF-539 CNS = test system: SF-539 CNS
SK-OV-3 ovarian = test system: SK-OV-3 ovarian
NCI-H226 lung = test system: NCI-H226 lung
OVCAR-4 ovarian = test system: OVCAR-4 ovarian
BT-549 breast = test system: BT-549 breast
SN12C renal = test system: SN12C renal
SR leukemia = test system: SR leukemia
NCI-H23 lung = test system: NCI-H23 lung
DU-145 prostate = test system: DU-145 prostate
HCT-116 colon = test system: HCT-116 colon
OVCAR-8 ovarian = test system: OVCAR-8 ovarian
TK-10 renal = test system: TK-10 renal
MOLT-4 leukemia = test system: MOLT-4 leukemia
OVCAR-5 ovarian = test system: OVCAR-5 ovarian
HOP-62 NSCLC = test system: HOP-62 NSCLC
M14 melanoma = test system: M14 melanoma
PC-3 prostate = test system: PC-3 prostate
HCT-15 colon = test system: HCT-15 colon
CAKI-1 renal = test system: CAKI-1 renal
NCI/ADR-RES ovarian = test system: NCI/ADR-RES ovarian
SF-295 CNS = test system: SF-295 CNS
HS 578T breast = test system: HS 578T breast
SK-MEL-2 melanoma = test system: SK-MEL-2 melanoma
HT29 colon = test system: HT29 colon
K-562 leukemia = test system: K-562 leukemia
A549 NSCLC = test system: A549 NSCLC
HL-60(TB) leukemia = test system: HL-60(TB) leukemia
CCRF-CEM leukemia = test system: CCRF-CEM leukemia
SF-268 CNS = test system: SF-268 CNS
UACC-62 melanoma = test system: UACC-62 melanoma
COLO 205 colon = test system: COLO 205 colon

Structure (SMILES): COc1ccc(CN2c3ccccc3Sc3ccccc32)c(C(F)(F)F)c1
- GI50 (SK-MEL-5 melanoma): 0.5 µM
- TGI (SK-MEL-5 melanoma): 15.7 µM
- GI50 (786-0 renal): 9.05 µM
- TGI (786-0 renal): > 100 µM
- GI50 (MALME-3M melanoma): 21 µM
- TGI (MALME-3M melanoma): > 100 µM
- GI50 (SNB-75 CNS): 0.241 µM
- TGI (SNB-75 CNS): > 100 µM
- GI50 (SNB-19 CNS): 3.8 µM
- TGI (SNB-19 CNS): > 100 µM
- GI50 (NCI-H460 lung): 0.456 µM
- TGI (NCI-H460 lung): > 100 µM
- GI50 (U251 CNS): 0.431 µM
- TGI (U251 CNS): 27.4 µM
- GI50 (HCC-2998 colon): 2 µM
- TGI (HCC-2998 colon): 10.3 µM
- GI50 (NCI-H522 lung): 0.314 µM
- TGI (NCI-H522 lung): 2.84 µM
- GI50 (SW-620 colon): 0.443 µM
- TGI (SW-620 colon): > 100 µM
- GI50 (A498 renal): 0.372 µM
- TGI (A498 renal): > 100 µM
- GI50 (MCF7 breast): 0.349 µM
- TGI (MCF7 breast): 36.8 µM
- GI50 (RPMI-8226 leukemia): 3 µM
- TGI (RPMI-8226 leukemia): 31.5 µM
- GI50 (ACHN renal): 0.666 µM
- TGI (ACHN renal): > 100 µM
- GI50 (LOX IMVI melanoma): 0.832 µM
- TGI (LOX IMVI melanoma): 33.3 µM
- GI50 (HOP-92 NSCLC): 0.227 µM
- TGI (HOP-92 NSCLC): 44.9 µM
- GI50 (MDA-MB-231 breast): 3.05 µM
- TGI (MDA-MB-231 breast): 58.6 µM
- GI50 (EKVX NSCLC): 1.2 µM
- TGI (EKVX NSCLC): > 100 µM
- GI50 (OVCAR-3 ovarian): 0.513 µM
- TGI (OVCAR-3 ovarian): 24.3 µM
- GI50 (RXF 393 renal): 0.38 µM
- TGI (RXF 393 renal): 6.55 µM
- GI50 (UO-31 renal): 3.98 µM
- TGI (UO-31 renal): > 100 µM
- GI50 (IGROV1 ovarian): 3.43 µM
- TGI (IGROV1 ovarian): > 100 µM
- GI50 (SF-539 CNS): 0.452 µM
- TGI (SF-539 CNS): 3.89 µM
- GI50 (SK-OV-3 ovarian): 0.557 µM
- TGI (SK-OV-3 ovarian): > 100 µM
- GI50 (NCI-H226 lung): 10.4 µM
- TGI (NCI-H226 lung): 56.3 µM
- GI50 (OVCAR-4 ovarian): 2.17 µM
- TGI (OVCAR-4 ovarian): > 100 µM
- GI50 (BT-549 breast): 3.12 µM
- TGI (BT-549 breast): 31.9 µM
- GI50 (SN12C renal): 9.73 µM
- TGI (SN12C renal): > 100 µM
- GI50 (SR leukemia): 0.483 µM
- TGI (SR leukemia): > 100 µM
- GI50 (NCI-H23 lung): 1.03 µM
- TGI (NCI-H23 lung): 93.4 µM
- GI50 (DU-145 prostate): 2.08 µM
- TGI (DU-145 prostate): > 100 µM
- GI50 (HCT-116 colon): 0.419 µM
- TGI (HCT-116 colon): 21.8 µM
- GI50 (OVCAR-8 ovarian): 2.22 µM
- TGI (OVCAR-8 ovarian): > 100 µM
- GI50 (TK-10 renal): 5.82 µM
- TGI (TK-10 renal): > 100 µM
- GI50 (MOLT-4 leukemia): 2.88 µM
- TGI (MOLT-4 leukemia): 43.4 µM
- GI50 (OVCAR-5 ovarian): 9.75 µM
- TGI (OVCAR-5 ovarian): > 100 µM
- GI50 (HOP-62 NSCLC): 0.604 µM
- TGI (HOP-62 NSCLC): 35.6 µM
- GI50 (M14 melanoma): 0.446 µM
- TGI (M14 melanoma): > 100 µM
- GI50 (PC-3 prostate): 0.546 µM
- TGI (PC-3 prostate): > 100 µM
- GI50 (HCT-15 colon): 0.489 µM
- TGI (HCT-15 colon): > 100 µM
- GI50 (CAKI-1 renal): 1.53 µM
- TGI (CAKI-1 renal): > 100 µM
- GI50 (NCI/ADR-RES ovarian): 0.462 µM
- TGI (NCI/ADR-RES ovarian): 3.16 µM
- GI50 (SF-295 CNS): 0.32 µM
- TGI (SF-295 CNS): 2.67 µM
- GI50 (HS 578T breast): 0.877 µM
- TGI (HS 578T breast): > 100 µM
- GI50 (SK-MEL-2 melanoma): 1.18 µM
- TGI (SK-MEL-2 melanoma): 14.7 µM
- GI50 (HT29 colon): 0.681 µM
- TGI (HT29 colon): 10.9 µM
- GI50 (K-562 leukemia): 0.395 µM
- TGI (K-562 leukemia): > 100 µM
- GI50 (A549 NSCLC): 0.807 µM
- TGI (A549 NSCLC): 68.5 µM
- GI50 (HL-60(TB) leukemia): 0.412 µM
- TGI (HL-60(TB) leukemia): 13.9 µM
- GI50 (CCRF-CEM leukemia): 0.454 µM
- TGI (CCRF-CEM leukemia): 26.5 µM
- GI50 (SF-268 CNS): 10.9 µM
- TGI (SF-268 CNS): 98.5 µM
- GI50 (UACC-62 melanoma): 0.917 µM
- TGI (UACC-62 melanoma): > 100 µM
- GI50 (COLO 205 colon): 0.64 µM
- TGI (COLO 205 colon): 3.08 µM
